Tests used:
S. aureus DSM 20231 [1] = assay: fitness (endpoint OD595 vs no drug) (fraction); higher = more growth
In short: (§1)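 Growth medium was TSB, LB Lennox or CY, and plates were kept at 37 °C. Inoculation was at OD595 0.01 in 384-well plates, at 30 µl per well or 55 µl for S. pneumoniae. OD595 was monitored every 30 min for 14 h and background-subtracted using the first reading. Fitness is the optical density on entering stationary phase divided by the robust mean of no-drug controls, with values capped at 1.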

S. aureus Newman = assay: Bliss interaction score (quartile over a dose matrix) (fitness difference); higher = more antagonism (negative = synergy)
In short: (§2)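 At entry into stationary phase, OD595 was recorded and divided by the robust mean of the no-drug wells on that plate, with any value above 1 set to 1. This gives the fitness measure used throughout. Single-drug fitness was inferred from combination data, and the Bliss score, observed minus product-expected fitness, is shown as quartiles across technical, biological and donor/recipient replicates.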

B. subtilis 168 [2] = assay: as above
In short: as §2

S. pneumoniae D39V [3] = assay: as above
In short: as §2

S. aureus DSM 20231 [4] = assay: as above
In short: as §2

B. subtilis 168 [5] = assay: fitness (endpoint OD595 vs no drug) (fraction); higher = more growth
In short: as §1

S. pneumoniae D39V [6] = assay: as above
In short: as §1
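Throughout, for Bliss interaction score (quartile over a dose matrix): first quartile when negative (synergy) and third quartile when positive (antagonism).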

O=C(N[C@H](CO)[C@H](O)c1ccc([N+](=O)[O-])cc1)C(Cl)Cl [Chloramphenicol] + CC(=O)NC[C@H]1CN(c2ccc(N3CCOCC3)c(F)c2)C(=O)O1 [Linezolid]
fitness, S. aureus DSM 20231 [1]
Settings	first compound 0.75 µg/mL	first compound 1.5 µg/mL	first compound 3 µg/mL
partner 0.125 µg/mL	0.609	0.321	0.11
partner 0.25 µg/mL	0.353	0.227	0.0855
partner 0.5 µg/mL	0.128	0.119	0.0711

S. aureus DSM 20231 [1], partner 1 µg/mL, one replicate
Settings	fitness
first compound 0.75 µg/mL	0.0506
first compound 1.5 µg/mL	0.0474
first compound 3 µg/mL	0.0396

Settings	Bliss interaction score
B. subtilis 168 [2]	-0.141
S. aureus DSM 20231 [4]	-0.152
S. aureus Newman	-0.112
S. pneumoniae D39V [3]	0.0462

O=C(N[C@H](CO)[C@H](O)c1ccc([N+](=O)[O-])cc1)C(Cl)Cl [Chloramphenicol] + CCC[C@@H]1C[C@@H](C(=O)N[C@@H]([C@H]2O[C@H](SC)[C@H](O)[C@@H](O)[C@H]2O)[C@@H](C)O)N(C)C1 [Lincomycin]
fitness, S. aureus DSM 20231 [1]
Settings	first compound 0.75 µg/mL	first compound 1.5 µg/mL	first compound 3 µg/mL
partner 0.1 µg/mL	0.729	0.57	–
partner 0.2 µg/mL	0.563	0.378	–
partner 0.4 µg/mL	0.215	0.167	0.0709

Settings	Bliss interaction score
B. subtilis 168 [2]	0.11
S. aureus DSM 20231 [4]	0.0462
S. aureus Newman	-0.167
S. pneumoniae D39V [3]	0.105

CCC[C@@H]1C[C@@H](C(=O)N[C@@H]([C@H]2O[C@H](SC)[C@H](O)[C@@H](O)[C@H]2O)[C@H](C)Cl)N(C)C1 [Clindamycin] + CC(=O)NC[C@H]1CN(c2ccc(N3CCOCC3)c(F)c2)C(=O)O1 [Linezolid]
one replicate
Settings	fitness
B. subtilis 168 [5], first compound 0.0039 µg/mL, partner 0.125 µg/mL	0.943
B. subtilis 168 [5], first compound 0.0039 µg/mL, partner 0.25 µg/mL	0.772
B. subtilis 168 [5], first compound 0.0039 µg/mL, partner 0.5 µg/mL	0.448
B. subtilis 168 [5], first compound 0.0078 µg/mL, partner 0.125 µg/mL	0.853
B. subtilis 168 [5], first compound 0.0078 µg/mL, partner 0.25 µg/mL	0.632
B. subtilis 168 [5], first compound 0.0078 µg/mL, partner 0.5 µg/mL	0.118
B. subtilis 168 [5], first compound 0.0156 µg/mL, partner 0.125 µg/mL	0.835
B. subtilis 168 [5], first compound 0.0156 µg/mL, partner 0.25 µg/mL	0.624
B. subtilis 168 [5], first compound 0.0156 µg/mL, partner 0.5 µg/mL	0.385
B. subtilis 168 [5], first compound 0.0625 µg/mL, partner 0.0625 µg/mL	0.696
B. subtilis 168 [5], first compound 0.125 µg/mL, partner 0.0625 µg/mL	0.497
B. subtilis 168 [5], first compound 0.25 µg/mL, partner 0.0625 µg/mL	0.387
S. aureus DSM 20231 [1], first compound 0.0312 µg/mL, partner 1 µg/mL	0.0507
S. aureus DSM 20231 [1], first compound 0.0625 µg/mL, partner 1 µg/mL	0.0324
S. aureus DSM 20231 [1], first compound 0.125 µg/mL, partner 1 µg/mL	0.0362

Settings	fitness
B. subtilis 168 [5], first compound 0.0625 µg/mL, partner 0.125 µg/mL	0.605
B. subtilis 168 [5], first compound 0.0625 µg/mL, partner 0.25 µg/mL	0.0905
B. subtilis 168 [5], first compound 0.0625 µg/mL, partner 0.5 µg/mL	0.0427
B. subtilis 168 [5], first compound 0.125 µg/mL, partner 0.125 µg/mL	0.502
B. subtilis 168 [5], first compound 0.125 µg/mL, partner 0.25 µg/mL	0.0971
B. subtilis 168 [5], first compound 0.125 µg/mL, partner 0.5 µg/mL	0.0448
B. subtilis 168 [5], first compound 0.25 µg/mL, partner 0.125 µg/mL	0.397
B. subtilis 168 [5], first compound 0.25 µg/mL, partner 0.25 µg/mL	0.104
B. subtilis 168 [5], first compound 0.25 µg/mL, partner 0.5 µg/mL	0.0468
S. aureus DSM 20231 [1], first compound 0.0312 µg/mL, partner 0.5 µg/mL	0.143
S. aureus DSM 20231 [1], first compound 0.0625 µg/mL, partner 0.25 µg/mL	0.13
S. aureus DSM 20231 [1], first compound 0.0625 µg/mL, partner 0.5 µg/mL	0.0789
S. aureus DSM 20231 [1], first compound 0.125 µg/mL, partner 0.125 µg/mL	0.0394
S. aureus DSM 20231 [1], first compound 0.125 µg/mL, partner 0.25 µg/mL	0.0405
S. aureus DSM 20231 [1], first compound 0.125 µg/mL, partner 0.5 µg/mL	0.0486
S. pneumoniae D39V [6], first compound 0.0125 µg/mL, partner 0.2 µg/mL	0.624
S. pneumoniae D39V [6], first compound 0.0125 µg/mL, partner 0.4 µg/mL	0.45
S. pneumoniae D39V [6], first compound 0.0125 µg/mL, partner 0.8 µg/mL	0.264
S. pneumoniae D39V [6], first compound 0.015 µg/mL, partner 0.105 µg/mL	0.81
S. pneumoniae D39V [6], first compound 0.015 µg/mL, partner 0.21 µg/mL	0.748
S. pneumoniae D39V [6], first compound 0.015 µg/mL, partner 0.42 µg/mL	0.627
S. pneumoniae D39V [6], first compound 0.025 µg/mL, partner 0.2 µg/mL	0.412
S. pneumoniae D39V [6], first compound 0.025 µg/mL, partner 0.4 µg/mL	0.345
S. pneumoniae D39V [6], first compound 0.025 µg/mL, partner 0.8 µg/mL	0.237
S. pneumoniae D39V [6], first compound 0.03 µg/mL, partner 0.105 µg/mL	0.707
S. pneumoniae D39V [6], first compound 0.03 µg/mL, partner 0.21 µg/mL	0.683
S. pneumoniae D39V [6], first compound 0.03 µg/mL, partner 0.42 µg/mL	0.539
S. pneumoniae D39V [6], first compound 0.05 µg/mL, partner 0.2 µg/mL	0.176
S. pneumoniae D39V [6], first compound 0.05 µg/mL, partner 0.4 µg/mL	0.148
S. pneumoniae D39V [6], first compound 0.05 µg/mL, partner 0.8 µg/mL	0.112
S. pneumoniae D39V [6], first compound 0.06 µg/mL, partner 0.105 µg/mL	0.579
S. pneumoniae D39V [6], first compound 0.06 µg/mL, partner 0.21 µg/mL	0.544
S. pneumoniae D39V [6], first compound 0.06 µg/mL, partner 0.42 µg/mL	0.277

Settings	Bliss interaction score
B. subtilis 168 [2]	0.215
S. aureus DSM 20231 [4]	0.027
S. aureus Newman	-0.0929
S. pneumoniae D39V [3]	0.132

CCC[C@@H]1C[C@@H](C(=O)N[C@@H]([C@H]2O[C@H](SC)[C@H](O)[C@@H](O)[C@H]2O)[C@H](C)Cl)N(C)C1 [Clindamycin] + CCC[C@@H]1C[C@@H](C(=O)N[C@@H]([C@H]2O[C@H](SC)[C@H](O)[C@@H](O)[C@H]2O)[C@@H](C)O)N(C)C1 [Lincomycin]
fitness, B. subtilis 168 [5], one replicate
Settings	first compound 0.0039 µg/mL	first compound 0.0078 µg/mL	first compound 0.0156 µg/mL
partner 0.4 µg/mL	0.964	0.838	0.828
partner 0.8 µg/mL	0.965	0.803	0.83
partner 1.6 µg/mL	0.94	0.817	0.81

Settings	fitness
B. subtilis 168 [5], first compound 0.0625 µg/mL, partner 0.1 µg/mL	0.659
B. subtilis 168 [5], first compound 0.0625 µg/mL, partner 0.2 µg/mL	0.613
B. subtilis 168 [5], first compound 0.0625 µg/mL, partner 0.4 µg/mL	0.675
B. subtilis 168 [5], first compound 0.125 µg/mL, partner 0.1 µg/mL	0.454
B. subtilis 168 [5], first compound 0.125 µg/mL, partner 0.2 µg/mL	0.406
B. subtilis 168 [5], first compound 0.25 µg/mL, partner 0.1 µg/mL	0.363
B. subtilis 168 [5], first compound 0.25 µg/mL, partner 0.2 µg/mL	0.355
B. subtilis 168 [5], first compound 0.25 µg/mL, partner 0.4 µg/mL	0.356
S. aureus DSM 20231 [1], first compound 0.0312 µg/mL, partner 0.2 µg/mL	0.265
S. aureus DSM 20231 [1], first compound 0.0312 µg/mL, partner 0.4 µg/mL	0.137
S. aureus DSM 20231 [1], first compound 0.0625 µg/mL, partner 0.1 µg/mL	0.16
S. aureus DSM 20231 [1], first compound 0.0625 µg/mL, partner 0.2 µg/mL	0.112
S. aureus DSM 20231 [1], first compound 0.0625 µg/mL, partner 0.4 µg/mL	0.083
S. aureus DSM 20231 [1], first compound 0.125 µg/mL, partner 0.1 µg/mL	0.0376
S. aureus DSM 20231 [1], first compound 0.125 µg/mL, partner 0.2 µg/mL	0.0455
S. aureus DSM 20231 [1], first compound 0.125 µg/mL, partner 0.4 µg/mL	0.0541
S. pneumoniae D39V [6], first compound 0.0125 µg/mL, partner 0.2 µg/mL	0.496
S. pneumoniae D39V [6], first compound 0.0125 µg/mL, partner 0.4 µg/mL	0.351
S. pneumoniae D39V [6], first compound 0.0125 µg/mL, partner 0.8 µg/mL	0.0708
S. pneumoniae D39V [6], first compound 0.015 µg/mL, partner 0.215 µg/mL	0.831
S. pneumoniae D39V [6], first compound 0.015 µg/mL, partner 0.43 µg/mL	0.741
S. pneumoniae D39V [6], first compound 0.015 µg/mL, partner 0.86 µg/mL	0.482
S. pneumoniae D39V [6], first compound 0.025 µg/mL, partner 0.2 µg/mL	0.356
S. pneumoniae D39V [6], first compound 0.025 µg/mL, partner 0.4 µg/mL	0.243
S. pneumoniae D39V [6], first compound 0.025 µg/mL, partner 0.8 µg/mL	0.0559
S. pneumoniae D39V [6], first compound 0.03 µg/mL, partner 0.215 µg/mL	0.772
S. pneumoniae D39V [6], first compound 0.03 µg/mL, partner 0.43 µg/mL	0.739
S. pneumoniae D39V [6], first compound 0.03 µg/mL, partner 0.86 µg/mL	0.394
S. pneumoniae D39V [6], first compound 0.05 µg/mL, partner 0.2 µg/mL	0.0687
S. pneumoniae D39V [6], first compound 0.05 µg/mL, partner 0.4 µg/mL	0.0516
S. pneumoniae D39V [6], first compound 0.05 µg/mL, partner 0.8 µg/mL	0.0164
S. pneumoniae D39V [6], first compound 0.06 µg/mL, partner 0.215 µg/mL	0.632
S. pneumoniae D39V [6], first compound 0.06 µg/mL, partner 0.43 µg/mL	0.524
S. pneumoniae D39V [6], first compound 0.06 µg/mL, partner 0.86 µg/mL	0.152

Settings	Bliss interaction score
B. subtilis 168 [2]	0.193
S. aureus DSM 20231 [4]	-0.0523
S. aureus Newman	-0.22
S. pneumoniae D39V [3]	0.0748

From the supplement of paper PMC10627819
